Reference: ChEMBL document CHEMBL1153503, “Design and synthesis of novel nitrogen-containing polyhydroxylated aromatics as HIV-1 integrase inhibitors from caffeic acid phenethyl ester” (Bioorg Med Chem Lett, 2009)

Experiments:
[1] = molecular target: T1, Human immunodeficiency virus type 1 integrase (Human immunodeficiency virus 1, UniProt Q7ZJM1); assay: Inhibition of HIV1 integrase assessed as inhibition of strand transfer activity by 32P-labelled assay
[2] = molecular target: T1, Human immunodeficiency virus type 1 integrase
Description: Inhibition of HIV1 integrase assessed as inhibition of 3'-end processing by 32P-labelled assay

[3] = molecular target: Human immunodeficiency virus type 1 integrase (Human immunodeficiency virus 1) (UniProt Q7ZJM1); assay: Selectivity index, ratio of IC50 for HIV1 integrase 3'-end processing to IC50 for HIV1 integrase strand transfer activity
Human immunodeficiency virus type 1 integrase (Human immunodeficiency virus 1), sequence (Q7ZJM1 as listed by the source): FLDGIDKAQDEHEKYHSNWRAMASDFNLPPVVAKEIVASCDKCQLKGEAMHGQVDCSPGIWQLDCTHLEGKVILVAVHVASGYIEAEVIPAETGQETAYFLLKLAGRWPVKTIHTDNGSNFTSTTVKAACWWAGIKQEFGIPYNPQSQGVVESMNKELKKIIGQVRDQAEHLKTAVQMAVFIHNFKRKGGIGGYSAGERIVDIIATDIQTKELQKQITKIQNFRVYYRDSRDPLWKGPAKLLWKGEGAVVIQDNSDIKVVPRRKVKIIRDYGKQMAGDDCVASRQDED

T1 sequence (Q7ZJM1 whole entry): as the sequence (Q7ZJM1 as listed by the source) above

Row | Structure (SMILES) | IC50 [1] | IC50 [2] | Ratio IC50 [3]
1 | Cc1ccc(NS(=O)(=O)c2ccc(NC(=O)c3cc(O)c(O)c(O)c3)cc2)cc1C | 8000 nM | 8 µM | 
2 | CC(=O)Oc1cc(C(=O)Nc2ccc(S(=O)(=O)Nc3ccccc3C)cc2)cc(OC(C)=O)c1OC(C)=O | 1600 nM | > 10 µM | 
3 | NS(=O)(=O)c1ccc(NC(=O)c2cc(O)c(O)c(O)c2)cc1 | 2000 nM | 22 µM | 11
4 | O=C(Nc1ccc(S(=O)(=O)Nc2ccc(Br)cc2)cc1)c1cc(O)c(O)c(O)c1 | 700 nM | 3 µM | 
5 | Cc1ccccc1NS(=O)(=O)c1ccc(NC(=O)c2cc(O)c(O)c(O)c2)cc1 | 2000 nM | 7 µM | 
6 | O=C(Nc1ccc(S(=O)(=O)Nc2ccccc2)cc1)c1ccc(O)c(O)c1 | 50000 nM | 100 µM | 
7 | O=C(Nc1ccc(S(=O)(=O)Nc2ccc(F)cc2)cc1)c1cc(O)c(O)c(O)c1 | 900 nM | 7 µM | 
8 | O=C(Nc1ccc(S(=O)(=O)Nc2ccc(F)c(F)c2)cc1)c1cc(O)c(O)c(O)c1 | 1500 nM | 4 µM | 
9 | O=C(Nc1ccc(S(=O)(=O)Nc2cccc(Br)c2)cc1)c1cc(O)c(O)c(O)c1 | 700 nM | 2 µM | 
10 | O=C(Nc1ccc(S(=O)(=O)Nc2ccc(F)c(F)c2F)cc1)c1cc(O)c(O)c(O)c1 | 3000 nM | 7 µM | 
11 | O=C(Nc1ccc(S(=O)(=O)Nc2ccc(Cl)cc2)cc1)c1cc(O)c(O)c(O)c1 | 2000 nM | 6 µM | 
12 | COc1ccc(NS(=O)(=O)c2ccc(NC(=O)c3cc(O)c(O)c(O)c3)cc2)cc1 | 4500 nM | 5 µM | 
13 | Cc1cc(C)cc(NS(=O)(=O)c2ccc(NC(=O)c3cc(O)c(O)c(O)c3)cc2)c1 | 2500 nM | 8 µM | 
14 | CC(=O)Oc1cc(C(=O)Nc2ccc(S(=O)(=O)Nc3ccccc3)cc2)cc(OC(C)=O)c1OC(C)=O | 1600 nM | 8 µM | 
15 | O=C(/C=C/c1ccc(O)c(O)c1)Nc1ccc(S(=O)(=O)Nc2ccccc2)cc1 | 12000 nM | 16 µM | 
16 | O=C(Nc1ccc(S(=O)(=O)NCc2ccc(Cl)cc2)cc1)c1cc(O)c(O)c(O)c1 | 2000 nM | 5 µM | 
17 | O=C(Nc1ccc(S(=O)(=O)Nc2ccc(Cl)c(Cl)c2)cc1)c1cc(O)c(O)c(O)c1 | 1700 nM | 5 µM | 
18 | O=C(Nc1ccc(S(=O)(=O)Nc2ccccc2)cc1)c1cc(O)c(O)c(O)c1 | 1500 nM | 7 µM | 
19 | CCCCc1ccc(NS(=O)(=O)c2ccc(NC(=O)c3cc(O)c(O)c(O)c3)cc2)cc1 | 2500 nM | 3 µM | 
20 | O=C(Nc1ccc(S(=O)(=O)NCc2ccc(F)cc2)cc1)c1cc(O)c(O)c(O)c1 | 2000 nM | 7 µM | 
21 | O=C(Nc1ccc(S(=O)(=O)Nc2ccc([N+](=O)[O-])cc2)cc1)c1cc(O)c(O)c(O)c1 | 3000 nM | 4 µM | 
22 | CCOc1ccc(NS(=O)(=O)c2ccc(NC(=O)c3cc(O)c(O)c(O)c3)cc2)cc1 | 1300 nM | 6 µM | 
